Earlier results in patent US10610591B2, “Light responsive quantum dot drug delivery system” (Nanoco Technologies Ltd., priority 2017, dated 2020).
Blank lines part the entries; values can stand above or below the molecule they belong to.

What was measured:
[1] = not given; remark: listed apart in the source
[2] = pH 7.4

Molecule: 7-Ethyl-10-hydroxycamptothecin
solubility in DMSO (DMSO): 2000 µg/mL
solubility in water (water): essentially insoluble in water

log P (log Po/w, log Poct/wat, log Pexp) ([1]; octanol/water): 2.4
Molecule: CC(C)(C#N)c1cc(Cn2cncn2)cc(C(C)(C)C#N)c1 [anastrozole, alpha,alpha,alpha′,alpha′-tetramethyl-5-(1H,1,2,4-triazol-1-ylmethyl)-m-benzenediacetonitrile]

log P^N (neutral) ([1]; neutral): 3.60
log D7.4 [2]: 0.12
Molecule: CC1=C(CC(=O)O)c2cc(F)ccc2/C1=C\c1ccc([S+](C)[O-])cc1 (centres unmarked) [sulindac]
